These results are taken from patent US5725871A, “Drug delivery compositions comprising lysophosphoglycerolipid” (Danbiosyst UK Limited, priority 1989, dated 1998).

For the experiment the following is noted: sheep, intranasal 2.0 IU/kg insulin, LPG versus LPC.

Description: The sheep were divided into 4 groups of 5 animals each. Group 1 received 2.0 IU/kg insulin together with 2.0 mg/kg SMS 45/25 microspheres (Pharmacia) and 0.2 mg/kg LPC (Formulation 1) intranasally in the form of a lyophilised powder. A sheep of 50 kg thus received 100 IU of insulin together with 100 mg SMS 45/25 microspheres and 10.0 mg LPC. Group 2 received 2.0 IU/kg insulin together with 2.0 mg/kg SMS 45/25 microspheres and 0.2 mg/kg LPG Formulation 2) intranasally in the form of a lyophilised powder. A sheep of 50 kg thus received 100 IU of insulin together with 100 mg SMS 45/25 microspheres and 10.0 mg LPG. Group 3 received 2.0 IU/kg insulin together with 0.02 mg/kg LPC (Formulation 3) intranasally in the form of a solution at 0.01 ml/kg. A sheep of 50 kg thus received 100 IU of insulin together with 1.0 mg LPC in a volume of 0.5 ml. Group 4 received 2.0 IU/kg insulin together with 0.02 mg/kg LPG (Formulation 4) intranasally in the form of a solution at 0.01 ml/kg. A sheep of 50 kg thus received 100 IU of insulin together with 1.0 mg LPG in a volume of 0.5 ml. […]
Sedation/Blood Sampling: For the intranasal studies, the sheep were sedated by use of an i.v. dose of ketamine hydrochloride (Ketalar (Regd. T.M.), 100 mg/ml injection) at 2.25 mg/kg. […] Each blood sample was divided into two parts and analysed as in Example 1.

Regarding L-α-lysophosphatidyl-DL-glycerol [LPG], the Plasma glucose levels entry was “lower (i.e. better) with LPG”.
